Source: PubChem BioAssay (NCI)
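48-hour exposure; five concentrations; linearly interpolated endpoints. Here, GI50 denotes the concentration required for 50% inhibition of growth. Definition used: TGI = concentration required for complete inhibition of growth.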

Key:
Assay in all cases: NCI-60 cell line screen, 48 h
[1] = tested on: KM12 colon
[2] = tested on: CAKI-1 renal
[3] = tested on: SW-620 colon
[4] = tested on: LOX IMVI melanoma
[5] = tested on: OVCAR-8 ovarian
[6] = tested on: MCF7 breast
[7] = tested on: PC-3 prostate
[8] = tested on: MOLT-4 leukemia

SMILES	GI50 [1] [µM]	TGI [1] [µM]	GI50 [2] [µM]	TGI [2] [µM]	GI50 [3] [µM]	TGI [3] [µM]	GI50 [4] [µM]	TGI [4] [µM]	GI50 [5] [µM]	TGI [5] [µM]	GI50 [6] [µM]	TGI [6] [µM]	GI50 [7] [µM]	TGI [7] [µM]	GI50 [8] [µM]	TGI [8] [µM]
c1cc(OCCCCCOc2cccc(-c3nc4ccccc4[nH]3)c2)cc(-c2nc3ccccc3[nH]2)c1	2.69	> 100	1.79	8.65	2.87	> 100	2.19	6.84	2.53	6.15	–	–	–	–	–	–
COc1ccc(-c2c(Nc3ccccn3)nc3c(C4=CCCCC4)c(-c4ccccc4)[nH]n3c2=O)cc1	3.7	> 100	2.48	15.1	3.07	> 100	1.8	> 100	3.47	> 100	1.81	15.5	2.17	> 100	–	–
CNCc1cccc2c1OCCOCCOCCNS(=O)(=O)c1ccc(cc1)-c1cnc(N)c(n1)C(=O)N2	1.22	2.98	0.46	1.86	0.875	3.13	0.889	2.27	1.61	10.4	0.439	5.11	–	–	0.557	7.68
C#CCCCCCC(=O)N[C@H]1C=C[C@@H]2/C=C(C)/C=C/[C@@H](C)[C@H]([C@H](C)[C@H](O)[C@@H](C)NC(C)=O)OC(=O)/C=C/C=C(C)\C=C\[C@]2(C)C1	0.00501	> 40	–	–	< 0.004	> 40	< 0.004	< 0.004	< 0.004	> 40	< 0.004	> 40	< 0.004	> 40	6.79	> 40
O=C(O)c1cn(C2CC2)c2cc(N3CCN(C(=O)N(c4ccccc4)c4nc(-c5ccccc5)cs4)CC3)c(F)cc2c1=O	0.369	> 100	–	–	–	–	–	–	0.378	> 100	0.358	> 100	–	–	–	–
COc1cc2c(cc1C)NC(=O)/C2=C\c1ccc(Oc2ccccc2)cc1	13.6	30.4	17	33	16.1	32.5	14	27	22.8	64.6	–	–	12.4	29.8	–	–
O=C(NO)c1ccc(CNc2cccc3nc(C4CC4)n(-c4ccccc4)c(=O)c23)cc1	–	–	2.12	7.51	1.81	6.01	–	–	1.65	5.82	3.35	18	–	–	2.79	23.3
CNS(=O)(=O)NNS(=O)(=O)c1ccc(C)cc1	–	> 100	–	> 100	–	> 100	–	–	–	> 100	–	–	–	–	–	> 100
COc1ccc([C@@H]2[C@@H](Oc3ccccc3)C(=O)N2c2cc(OC)c(OC)c(OC)c2)cc1F	0.088	> 100	–	–	0.0769	> 100	0.091	> 100	0.189	> 100	0.0409	> 100	0.23	> 100	0.345	> 100
COc1cc2c(Oc3ccc(-c4cnc(Nc5ccc(F)cc5)n(C)c4=O)cc3F)ccnc2cc1OCCCN1CCOCC1	–	–	1.05	2.46	–	–	1.23	2.55	1.87	4.72	0.783	2.47	2.05	6.39	–	–
O=S(=O)(Nc1ccccc1)c1ccc(C2CC3(Cl)C(Cl)=C(Cl)C2(Cl)C3(Cl)Cl)cc1 (stereo unspecified)	2.15	4.12	2.16	6.27	–	–	1.84	3.47	3.52	10.9	2.59	7.67	2.74	10.2	2.5	6.84
CCN1CCN(CC(=O)Nc2nc3ccc(NCc4ccc(Br)cc4)cc3s2)CC1	3.25	> 100	1.84	4.55	–	–	–	–	3.25	> 100	2.05	4.9	–	–	–	–
CC(=O)O[C@H]1C[C@@H]2[C@@]3(C)CC[C@H]4C[C@@]4(C)[C@@H]3CC[C@@]2(C)C2=CCC3=C(COC3=O)[C@]21C	18.7	43.6	–	–	19.4	43.6	17.6	36.5	19.9	65	24	89.8	18.4	46.1	33.5	> 100
O=C1Nc2ccc(Cl)cc2/C1=N/c1nc(-c2ccc(Cl)cc2)cs1	1.37	4.55	–	–	1.67	4.29	–	–	–	–	–	–	–	–	1.61	> 100
